Assay results from article PMC10766536 (The Journal of Antibiotics, 2023).

How the values were obtained:
[1] = test system: S. aureus MRSA strain N315; assay: S. aureus IV advanced disseminated infection mouse model, kidney burden; type: in vivo, Balb/c mice
Method: (§1) S. aureus MSRA strain NRS384 or N315 (BEI Resources), where indicated, was grown overnight in TSB and sub-cultured to mid-logarithmic phase. […] From 1 to 3 days post-infection, indicated mice were injected subcutaneously with 110 mg/kg vancomycin twice daily where indicated. […] Mice were monitored for weight loss and body conditioning score throughout the infection. At 4 days post-infection, mice were euthanized, and the S. aureus kidney burden was quantified by tissue homogenization followed by enumeration of cfu through serial dilution in PBS and plating onto TSA plates. Data points represent the kidney burden from individual mice tested. Statistical analysis was conducted with GraphPad Prism 9, Version 9.4.1.

[2] = test system: S. aureus MRSA strain NRS384; assay: as above; type: in vivo, Balb/c mice; settings: 0.01–0.25 mg/kg sc single dose in combination with vancomycin, NRS384
Method: as §1

[3] = Toxicokinetics in 2-week IV rat toxicity study; type: in vivo
Method: A subset from each dose group was maintained for 14 days after the last dose to evaluate delayed toxicity and/or recovery. All animals were observed twice daily for mortality and signs of pain or distress. Detailed clinical observations, body weight measurements and food consumption were conducted weekly; post dose observations (30 min post dose) were conducted daily or as required. Clinical pathology evaluations (hematology, coagulation parameters, and serum chemistry) were performed using samples collected on the day of scheduled sacrifice (main and recovery). At the end of the 14-day dosing period, and at the end of the 14-day recovery period, necropsies were performed on all animals, selected organs were weighed, and tissues were examined macroscopically and microscopically. Toxicokinetic parameters were evaluated on Day 1 and 14.

[4] = rat, s9
CYP 2C8 = CYP 2C8 (Homo sapiens, UniProt P10632); assay: CYP inhibition; settings: read-out: CYP inhibition IC50; CYP 2C8, substrate Amodiaquine; ND = Not Detected
[5] = test system: Salmonella typhimurium AR-0031; assay: S. typhimurium broth killing (growth inhibition) assay; settings: Salmonella typhimurium AR-0031, TSB, 24 h
From the text: To test the potency of rifamycin analogs of the disclosure in vitro, a broth growth inhibition assay was developed.

Chain of CYP 2C8 (P10632 whole entry): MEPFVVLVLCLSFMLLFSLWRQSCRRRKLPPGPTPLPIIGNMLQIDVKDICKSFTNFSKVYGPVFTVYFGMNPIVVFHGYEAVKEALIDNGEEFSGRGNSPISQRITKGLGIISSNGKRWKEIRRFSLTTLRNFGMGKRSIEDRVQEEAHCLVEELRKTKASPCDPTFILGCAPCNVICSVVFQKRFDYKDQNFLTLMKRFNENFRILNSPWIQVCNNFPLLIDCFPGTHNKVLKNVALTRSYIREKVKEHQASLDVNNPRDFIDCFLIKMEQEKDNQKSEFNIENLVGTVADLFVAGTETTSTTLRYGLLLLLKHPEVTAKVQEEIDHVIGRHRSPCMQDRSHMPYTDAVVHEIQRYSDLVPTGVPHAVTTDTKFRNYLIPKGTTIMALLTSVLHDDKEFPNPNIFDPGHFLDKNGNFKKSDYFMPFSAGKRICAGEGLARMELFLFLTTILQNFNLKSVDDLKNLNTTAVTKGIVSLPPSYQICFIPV

COC1C=COC2(C)Oc3c(C)c(O)c4c(=O)c(c5oc6cc(OCCN(C)C)ccc6nc-5c4c3C2=O)NC(=O)C(C)=CC=CC(C)C(O)C(C)C(O)C(C)C(OC(C)=O)C1C (centres unmarked) [Compound 4]
bacterial load (kidney) ([1]; 0.01 mg/kg in combination with vancomycin): below the limit of detection
S. aureus kidney burden ([1]; 0.01–0.75 mg/kg in combination with vancomycin): to or near the limit of detection
S. aureus kidney burden [2]: further reduced kidney burden
accumulation following 14 daily doses ([3]; rat IV QD): No apparent accumulation
sex difference in exposure ([3]; rat IV QD 1 mg/kg/day, males vs females): No sex difference
dose proportionality of Cmax and AUCtau ([3]; rat IV QD 0.1-10 mg/kg/day): approximately dose-proportional
AUC or Cmax when coadministered with vancomycin ([3]; rat IV, 1 + 110 mg/kg/day, compound 5: except Day 1, slightly greater Cmax and AUC): not impacted
T1/2 [4]: >2 h
Fold Induction (Enzyme Activity) (CYP 2B6): 0.0131
IC50 (CYP 2C8): 6.76 µM
Broth MIC [5]: 1 µM
